Reference: US20200369674A1, “ANTI-PAIN COMPOUND AND PREPARATION METHOD THEREOF” (LUNAN PHARMACEUTICAL GROUP CORPORATION, priority 2017, published 2020)

Columns and labels:
CCI rats = test: Mechanical stimulation paw withdrawal threshold (MWT) in CCI rats; type: in vivo, SD rats; conditions: for inhibition rate (absolute %): PTE % vs vehicle; for MWT: mean±SEM; for inhibition rate (relative %): relative to sham minus vehicle
Protocol: SD rats, body weight 180 g-220 g, half of them being male and the other half being female, provided by the Department of Laboratory Animals, Peking University. The rats were raised in a standard environment with temperature of 22±0.5° C. and relative humidity of 55±5%, 12 h/12 h light-dark cycle, and fed with standard feed.
Rat was anesthetized with pentobarbital sodium (60 mg/kg, i.p.), the right hind limb was surgically shaved, fixed in the prone position, a longitudinal incision was made along the middle of the right hind limb of the rat, the muscle was bluntly separated, the sciatic nerve was exposed, and the sciatic nerve bifurcate proximal end was loosely ligated with 4-0 silk suture for 4 times, with an interval of about 1 mm each time, in which the degree of tightness was suitable when it was observed that the right hind leg was slightly shaken. After ligation, the muscle and skin were sutured in sequence. For the sham-operated group, the sciatic nerve was only exposed, but not ligated. The success of modeling was determined by observing whether the hind limb of the rat's operation side was closed, slightly valgus and often vacated, and by measuring the mechanical stimulation paw withdrawal threshold and the thermal stimulation paw withdrawal latency of the rat.
Before surgery, the mechanical stimulation paw withdrawal thresholds and the thermal stimulation paw withdrawal latencies in the rats were determined, and the rats were grouped as: sham operation group (sham), vehicle group (double-distilled water, i.g.), DXL-A-22 group (2 mg/kg, i.g.), DXL-A-24 group (1 mg/kg, i.g.), and Gabapentin group (100 mg/kg, i.g.). All compounds and drugs were dissolved in double-distilled water, and given by intragastric administration at 1 mL/100 g. From the first day after surgery, the administration was carried out every day, and the mechanical stimulation paw withdrawal threshold and the thermal stimulation paw withdrawal latency were measured 2 hours after administration.
The mechanical stimulation paw withdrawal threshold (MWT) of rats was detected by von Frey electronic pain tester. The measurement was carried out on the days 5, 7 and 14 after operation. The rats were placed in a transparent plexiglass box (whose bottom was a wire mesh with a gap of 1 mm^2) to adapt to the environment for 30 min. After the rats had no exploration action, the von Frey electronic pain tester was used to stimulate the middle position of paw at the operation side of the rat, and the maximum force caused by rat paw withdrawal response (i.e., MWT) was recorded. The inhibition rate of the compound was calculated according to the following formula:
Absolute increase rate (i.e., PTE %): PTE %=(MWT of test group−MWT of vehicle group)/MWT of vehicle group×100 (1)
Relative increase rate: Inhibition rate %=(MWT of test group−MWT of vehicle group)/(MWT of Sham operation group−MWT of vehicle group)×100 (2)

ICR mice [1] = test: Acetic acid writhing test; type: in vivo; set-up: key to Inhibition rate (%): Symbol “—” indicates that the data obtained at this dose was not significantly different from the vehicle control group; conditions: 1 mg/kg intragastric, 0.6% acetic acid ip two hours after administration
Protocol: (§1) ICR mice, 18-22 g, half of them being male and the other half being female, provided by the Department of Laboratory Animals, Peking University (License No.: SCXK (Beijing) 2016-0010).
ICR mice, half of them being male and the other half being female, were randomly grouped, 8 mice per group. Vehicle control group (double-distilled water), ibuprofen control group, and groups for samples to be tested (the compounds and doses thereof were shown in Table 2) were set. All drugs were dissolved in double-distilled water before administration, and given by intragastric administration at predetermined doses. Two hours after the administration, the mice were intraperitoneally injected with 0.6% acetic acid solution (10 ml/kg, ip), and the number of times the mice writhed (abdomen depressed, buttock raised, body elongated) was recorded within 5-20 minutes. The inhibition rate % of compound on writhing pain in mice was calculated according to the following formula.
Inhibition rate %=(number of writhing times in vehicle control group−number of writhing times in test group)/number of writhing times in vehicle control group×100

ICR mice [2] = test: Formalin experiment; type: in vivo; conditions: Mus musculus, po, 2 h; 1 mg/kg intragastric, 2.5% formalin two hours after administration, phase II 10-60 minutes; read-out: Phase II pain inhibition rate (%)
Protocol: as §1
ICR mice, half of them being male and the other half being female, were randomly grouped, 8 mice per group. Vehicle control group (double-distilled water) and groups for samples to be tested were set, in which the compounds and doses thereof were shown in Table 3. All drugs were dissolved in double-distilled water before administration, and given by intragastric administration at predetermined doses. Two hours after administration, the mice were injected with 20 ul of 2.5% formalin solution in the right hind foot, and the time (s) of licking or biting foot was recorded as an index of pain response, in which 0-5 minutes was phase I, 10-60 minutes was phase II, and the total observation time was 60 minutes. The phase II pain inhibition rate of compound in mice was calculated according to the following formula:
Inhibition rate %=(time of licking or biting foot in vehicle control group−time of licking or biting foot in test group)/time of licking or biting foot in vehicle control group×100

[3] = 2 mg/kg i.g. daily, Day 5 after operation, section 3.1
[4] = 2 mg/kg i.g. daily, Day 7 after operation, section 3.1
[5] = 2 mg/kg i.g. daily, Day 14 after operation, section 3.1
[6] = 1 mg/kg i.g. daily, Day 5 after operation, section 3.3
[7] = 1 mg/kg i.g. daily, Day 7 after operation, section 3.3
[8] = 1 mg/kg i.g. daily, Day 14 after operation, section 3.3

Br.Brc1ccc(N2CC[N+]3(CCCC3)CC2)cc1 [DXL-A-22, 8-(4-bromophenyl)-5,8-diazaspiro[4.5]decan-5-ium bromide]
inhibition rate (absolute %) (CCI rats; [3]): 76.88% | MWT (CCI rats; [3]): 19.28 ± 1.44**/ | inhibition rate (relative %) (CCI rats; [3]): 31.01% | inhibition rate (absolute %) (CCI rats; [4]): 116.83% | MWT (CCI rats; [4]): 22.16 ± 0.79**/ | inhibition rate (relative %) (CCI rats; [4]): 43.18% | inhibition rate (absolute %) (CCI rats; [5]): 108.81% | MWT (CCI rats; [5]): 22.05 ± 0.74**/ | inhibition rate (relative %) (CCI rats; [5]): 41.26% | Inhibition rate (%) (ICR mice [1]): — | inhibition in vivo at 1 mg/kg (ICR mice [2]): 52.6%

FC(F)(F)c1ccc(N2CC[N+]3(CCCC3)CC2)cc1.[Br-] [DXL-A-24, 8-(4-(trifluoromethyl)phenyl)-5,8-diazaspiro[4.5]decan-5-ium bromide]
inhibition rate (absolute %) (CCI rats; [6]): 75.78% | MWT (CCI rats; [6]): 20.32 ± 1.09**/ | inhibition rate (relative %) (CCI rats; [6]): 35.35% | inhibition rate (absolute %) (CCI rats; [7]): 117.94% | MWT (CCI rats; [7]): 22.84 ± 1.64**/ | inhibition rate (relative %) (CCI rats; [7]): 47.89% | inhibition rate (absolute %) (CCI rats; [8]): 75.09% | MWT (CCI rats; [8]): 20.31 ± 1.57**/ | inhibition rate (relative %) (CCI rats; [8]): 33.24% | Inhibition rate (%) (ICR mice [1]): — | inhibition in vivo at 1 mg/kg (ICR mice [2]): 50.2%
